# From PubChem BioAssay AID256 (DTP/NCI, 2004)
# Where “and” joins values, the source holds several entries; their conditions need not be identical. Identical values can stand only once. Inconclusive results and toxic doses are left out.
# Tested on: CD2F1 mice, L1210 leukemia ip, survival T/C
# Experiment: NCI In Vivo Anticancer Drug Screen. Data for tumor model L1210 Leukemia (intraperitoneal) in CD2F1 (CDF1) mice
# Conditions: higher = longer survival
# Summary of the method: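 Ratio T/C, where T is the treated-group value and C the vehicle-dosed control value, from mice implanted with a transplantable tumor.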
# [1] = endpoint: mean survival time, dose: 50.0 mg/kg/injection, schedule: Q01DX009 (ip), vehicle: other
# [2] = endpoint: mean survival time, dose: 100.0 mg/kg/injection, schedule: Q01DX009 (ip), vehicle: other
# [3] = endpoint: mean survival time, dose: 200.0 mg/kg/injection, schedule: Q01DX009 (ip), vehicle: other
# [4] = endpoint: mean survival time, dose: 25.0 mg/kg/injection, schedule: Q04DX003 (ip), vehicle: saline
# [5] = endpoint: mean survival time, dose: 400.0 mg/kg/injection, schedule: Q01DX009 (ip), vehicle: other
# [6] = endpoint: mean survival time, dose: 100.0 mg/kg/injection, schedule: Q04DX003 (ip), vehicle: saline with Tween-80
# [7] = endpoint: mean survival time, dose: 200.0 mg/kg/injection, schedule: Q04DX003 (ip), vehicle: saline with Tween-80
# [8] = endpoint: mean survival time, dose: 400.0 mg/kg/injection, schedule: Q04DX003 (ip), vehicle: saline with Tween-80
# [9] = endpoint: mean survival time, dose: 100.0 mg/kg/injection, schedule: Q01DX009 (ip), vehicle: saline with Tween-80
# [10] = endpoint: mean survival time, dose: 200.0 mg/kg/injection, schedule: Q01DX009 (ip), vehicle: saline with Tween-80
# [11] = endpoint: mean survival time, dose: 400.0 mg/kg/injection, schedule: Q01DX009 (ip), vehicle: saline with Tween-80
# [12] = endpoint: mean survival time, dose: 25.0 mg/kg/injection, schedule: Q01DX009 (ip), vehicle: saline
# [13] = endpoint: mean survival time, dose: 12.5 mg/kg/injection, schedule: Q01DX009 (ip), vehicle: Klucel (hydroxypropylcellulose) (HPC)
# [14] = endpoint: mean survival time, dose: 50.0 mg/kg/injection, schedule: Q01DX009 (ip), vehicle: Klucel (hydroxypropylcellulose) (HPC)
# [15] = endpoint: mean survival time, dose: 100.0 mg/kg/injection, schedule: Q01DX009 (ip), vehicle: Klucel (hydroxypropylcellulose) (HPC)
structure (smiles),measurement,setting,value
FC(F)=C(F)I,T/C,[1],95 % of control
same,T/C,[2],103 % of control
same,T/C,[3],103 % of control
CCCc1cccc[n+]1CC(=O)c1ccccc1,T/C,"endpoint: mean survival time, dose: 6.25 mg/kg/injection, schedule: Q04DX003 (ip), vehicle: saline",106 % of control
same,T/C,"endpoint: mean survival time, dose: 12.5 mg/kg/injection, schedule: Q04DX003 (ip), vehicle: saline",98 % of control
same,T/C,[4],98 % of control
CC1OC(O)CC(NC(=O)C(F)(F)F)C1O (configuration not stated),T/C,"endpoint: mean survival time, dose: 25.0 mg/kg/injection, schedule: Q01DX005 (ip), vehicle: water",98 % of control
same,T/C,"endpoint: mean survival time, dose: 50.0 mg/kg/injection, schedule: Q01DX005 (ip), vehicle: water",95 % of control
same,T/C,"endpoint: mean survival time, dose: 100.0 mg/kg/injection, schedule: Q01DX005 (ip), vehicle: water",98 % of control
same,T/C,"endpoint: mean survival time, dose: 200.0 mg/kg/injection, schedule: Q01DX005 (ip), vehicle: water",107 % of control
same,T/C,"endpoint: mean survival time, dose: 400.0 mg/kg/injection, schedule: Q01DX005 (ip), vehicle: water",98 % of control
Cc1ccc(C(=O)CC(O)(C(F)(F)F)C(F)(F)F)cc1,T/C,[2],106 % of control
same,T/C,[5],112 % of control
NC(=S)NNc1ccccn1,T/C,"endpoint: mean survival time, dose: 25.0 mg/kg/injection, schedule: Q04DX002 (ip), vehicle: saline",106 % of control
same,T/C,"endpoint: mean survival time, dose: 50.0 mg/kg/injection, schedule: Q04DX002 (ip), vehicle: saline",108 % of control
Cc1cccc[n+]1CC(=O)c1ccccc1,T/C,[4],104 % of control
same,T/C,"endpoint: mean survival time, dose: 50.0 mg/kg/injection, schedule: Q04DX003 (ip), vehicle: saline",96 % of control
same,T/C,"endpoint: mean survival time, dose: 100.0 mg/kg/injection, schedule: Q04DX003 (ip), vehicle: saline",96 % of control
NC(N)=NC(N)=Nc1ccc([As](=O)(O)O)c(O)c1,T/C,"endpoint: mean survival time, dose: 100.0 mg/kg/injection, schedule: Q01DX009 (ip), vehicle: saline sonified",111 % of control
CN(C)NC(=O)CC(N)C(=O)O (configuration not stated),T/C,[6],101 % of control
same,T/C,[7],101 % of control
same,T/C,[8],102 % of control
COCC(O)CN1CCN(c2cccc3c2CCCC3)CC1 (configuration not stated),T/C,"endpoint: mean survival time, dose: 100.0 mg/kg/injection, schedule: Q01DX001 (ip), vehicle: saline with Tween-80",97 % of control
same,T/C,"endpoint: mean survival time, dose: 200.0 mg/kg/injection, schedule: Q01DX001 (ip), vehicle: saline with Tween-80",100 % of control
O=S(=O)(CCBr)CCBr,T/C,[9],95 % of control
same,T/C,[6],109 % of control
same,T/C,[10],86 % of control
same,T/C,[7],107 % of control
same,T/C,[11],100 % of control
same,T/C,[8],88 % of control
Cc1ccc(S(=O)(=O)OCC2CC3CCC2C3)cc1 (configuration not stated),T/C,[2],102 % of control
same,T/C,[3],102 % of control
same,T/C,[5],93 % of control
O=c1[nH]c2ccccc2[nH]1,T/C,[6],100 % of control
same,T/C,[7],95 % of control
same,T/C,[8],103 % of control
CC(=O)OCCN1CC1,T/C,[12],90 % of control
O=C(CC(O)(C(F)(F)F)C(F)(F)F)c1ccc([N+](=O)[O-])cc1,T/C,[2],97 % of control
same,T/C,[3],97 % of control
same,T/C,[5],101 % of control
CCOP(OCC)SSCn1nc2ccc3ccccc3n2c1=O,T/C,[13],100 % of control
same,T/C,"endpoint: mean survival time, dose: 25.5 mg/kg/injection, schedule: Q01DX009 (ip), vehicle: Klucel (hydroxypropylcellulose) (HPC)",95 % of control
same,T/C,[14],113 % of control
CC(CCc1ccccc1)NC1=NCCO1 (configuration not stated),T/C,[9],102 % of control
same,T/C,[6],98 % of control
same,T/C,[10],95 % of control
same,T/C,[7],103 % of control
same,T/C,[11],98 % of control
same,T/C,[8],95 % of control
O=C(C[n+]1ccc2ccccc2c1)c1ccccc1,T/C,"endpoint: mean survival time, dose: 25.0 mg/kg/injection, schedule: Q04DX003 (ip), vehicle: saline sonified",98 % of control
same,T/C,"endpoint: mean survival time, dose: 50.0 mg/kg/injection, schedule: Q04DX003 (ip), vehicle: saline sonified",93 % of control
CC12CCC(c3cn(C(=O)c4cccnc4)nc31)C2(C)C (configuration not stated),T/C,[14],102 % of control
same,T/C,[15],94 % of control
CC(=O)O.CC(=O)O.CC(=O)O.[O]=[U]=[O],T/C,"endpoint: mean survival time, dose: 12.5 mg/kg/injection, schedule: Q01DX009 (ip), vehicle: saline",98 % of control
same,T/C,[12],98 % of control
same,T/C,"endpoint: mean survival time, dose: 50.0 mg/kg/injection, schedule: Q01DX009 (ip), vehicle: saline",90 % of control
Nc1nc(NNC(=O)c2ccccc2)c2nonc2n1,T/C,"endpoint: mean survival time, dose: 12.5 mg/kg/injection, schedule: Q01DX005 (ip), vehicle: other",95 % of control
same,T/C,"endpoint: mean survival time, dose: 25.0 mg/kg/injection, schedule: Q01DX005 (ip), vehicle: other",95 % of control
same,T/C,"endpoint: mean survival time, dose: 50.0 mg/kg/injection, schedule: Q01DX005 (ip), vehicle: other",91 % of control
same,T/C,"endpoint: mean survival time, dose: 200.0 mg/kg/injection, schedule: Q01DX005 (ip), vehicle: other",91 % of control
Cc1cc(N=C(N)N)ccc1C(=O)Oc1ccc([N+](=O)[O-])cc1,T/C,"endpoint: mean survival time, dose: 12.5 mg/kg/injection, schedule: Q01DX009 (ip), vehicle: other",102 % of control
same,T/C,"endpoint: mean survival time, dose: 25.0 mg/kg/injection, schedule: Q01DX009 (ip), vehicle: other",98 % of control
same,T/C,[1],90 % of control
CC(=O)C(C)C(C)=O,T/C,[9],105 % of control
same,T/C,[10],107 % of control
same,T/C,[11],102 % of control
CCOC(=O)c1ccc(N(CC)CC)cc1,T/C,[9],95 % of control
same,T/C,[6],104 % of control
same,T/C,[10],92 % of control
same,T/C,[7],98 % of control
same,T/C,[11],95 % of control
same,T/C,[8],94 % of control
O=C1C=CN(C2OC(CO)C(O)C2O)C(=O)C1 (configuration not stated),T/C,"endpoint: mean survival time, dose: 6.25 mg/kg/injection, schedule: Q01DX009 (ip), vehicle: saline with Tween-80",120 % of control
same,T/C,"endpoint: mean survival time, dose: 12.5 mg/kg/injection, schedule: Q01DX009 (ip), vehicle: saline with Tween-80",124 % of control
same,T/C,"endpoint: mean survival time, dose: 75.0 mg/kg/injection, schedule: Q01DX005 (ip), vehicle: saline",113 % of control
same,T/C,[9],102 % of control
same,T/C,"endpoint: mean survival time, dose: 150.0 mg/kg/injection, schedule: Q01DX005 (ip), vehicle: saline",122 % of control
same,T/C,"endpoint: mean survival time, dose: 150.0 mg/kg/injection, schedule: Q01DX005 (iv), vehicle: saline",124 % of control
same,T/C,[10],113 % of control
same,T/C,"endpoint: mean survival time, dose: 300.0 mg/kg/injection, schedule: Q01DX005 (ip), vehicle: saline",101 % of control
same,T/C,"endpoint: mean survival time, dose: 300.0 mg/kg/injection, schedule: Q01DX005 (iv), vehicle: saline",116 % of control
same,T/C,[11],93 % of control
same,T/C,"endpoint: mean survival time, dose: 600.0 mg/kg/injection, schedule: Q01DX005 (ip), vehicle: saline",119 % of control
same,T/C,"endpoint: median survival time, dose: 12.5 mg/kg/injection, schedule: Q01DX009 (ip), vehicle: saline",121 % of control
same,T/C,"endpoint: median survival time, dose: 25.0 mg/kg/injection, schedule: Q01DX009 (ip), vehicle: saline",172 % of control
same,T/C,"endpoint: median survival time, dose: 75.0 mg/kg/injection, schedule: Q01DX009 (ip), vehicle: saline",113 % of control
Cn1cnc(=S)c2ccccc21,T/C,"endpoint: mean survival time, dose: 25.0 mg/kg/injection, schedule: Q04DX003 (ip), vehicle: Klucel (hydroxypropylcellulose) (HPC)",104 % of control
same,T/C,"endpoint: mean survival time, dose: 50.0 mg/kg/injection, schedule: Q04DX003 (ip), vehicle: Klucel (hydroxypropylcellulose) (HPC)",93 % of control
O=C(Nc1ccc(N=C=S)cc1Cl)c1cc(Cl)cc(Cl)c1O,T/C,"endpoint: mean survival time, dose: 6.25 mg/kg/injection, schedule: Q01DX009 (ip), vehicle: Klucel (hydroxypropylcellulose) (HPC)",91 % of control and 104 % of control
same,T/C,[13],97 % of control
same,T/C,"endpoint: mean survival time, dose: 25.0 mg/kg/injection, schedule: Q01DX009 (ip), vehicle: Klucel (hydroxypropylcellulose) (HPC)",96 % of control and 109 % of control
same,T/C,[14],113 % of control and 103 % of control
same,T/C,[15],97 % of control
CC1(CBr)Oc2ccccc2O1,T/C,"endpoint: mean survival time, dose: 100.0 mg/kg/injection, schedule: Q04DX003 (ip), vehicle: Klucel (hydroxypropylcellulose) (HPC)",97 % of control
same,T/C,"endpoint: mean survival time, dose: 200.0 mg/kg/injection, schedule: Q04DX003 (ip), vehicle: Klucel (hydroxypropylcellulose) (HPC)",88 % of control
same,T/C,"endpoint: mean survival time, dose: 400.0 mg/kg/injection, schedule: Q04DX003 (ip), vehicle: Klucel (hydroxypropylcellulose) (HPC)",94 % of control
NC1CCCCC1N.O=S(=O)([O-])CCCN1CCN(CCO)CC1.O=S(=O)([O-])CCCN1CCN(CCO)CC1.[Pt+4],T/C,"endpoint: median survival time, dose: 0.78 mg/kg/injection, schedule: Q04DX003 (ip), vehicle: saline",121 % of control
same,T/C,"endpoint: median survival time, dose: 1.56 mg/kg/injection, schedule: Q04DX003 (ip), vehicle: saline",120 % of control
same,T/C,"endpoint: median survival time, dose: 6.25 mg/kg/injection, schedule: Q04DX003 (ip), vehicle: saline",168 % of control and 175 % of control
same,T/C,"endpoint: median survival time, dose: 12.5 mg/kg/injection, schedule: Q04DX003 (ip), vehicle: saline",212 % of control and 487 % of control
same,T/C,"endpoint: median survival time, dose: 25.0 mg/kg/injection, schedule: Q04DX003 (ip), vehicle: saline",256 % of control and 487 % of control
same,T/C,"endpoint: median survival time, dose: 50.0 mg/kg/injection, schedule: Q04DX003 (ip), vehicle: saline",151 % of control and 170 % of control
